Measurements reported in ChEMBL document CHEMBL3431459, “Roche carnitine palmitoyltransferase modulator screening data (supplementary data associated with the publication CHEMBL2216752)”.
pIC50: −log10 of the molar value. Values after ≈ are worked out from the molar mass of the structure shown.

Legend:
[1] = SUPPLEMENTARY: Lipophilicity (log D) Determination by high-throughput shake-flask; format: physicochemical; conditions: octanol/water
[2] = SUPPLEMENTARY: Lyophilisation Solubility Assay (LYSA); format: physicochemical; conditions: read-out: Kinetic_solubility
[3] = molecular target: T1, Carnitine O-palmitoyltransferase 2, mitochondrial (Homo sapiens, UniProt P23786); assay: (§1) SUPPLEMENTARY: Inhibition of Carnitine palmitoyltransferase 2
T1 sequence (P23786 whole entry): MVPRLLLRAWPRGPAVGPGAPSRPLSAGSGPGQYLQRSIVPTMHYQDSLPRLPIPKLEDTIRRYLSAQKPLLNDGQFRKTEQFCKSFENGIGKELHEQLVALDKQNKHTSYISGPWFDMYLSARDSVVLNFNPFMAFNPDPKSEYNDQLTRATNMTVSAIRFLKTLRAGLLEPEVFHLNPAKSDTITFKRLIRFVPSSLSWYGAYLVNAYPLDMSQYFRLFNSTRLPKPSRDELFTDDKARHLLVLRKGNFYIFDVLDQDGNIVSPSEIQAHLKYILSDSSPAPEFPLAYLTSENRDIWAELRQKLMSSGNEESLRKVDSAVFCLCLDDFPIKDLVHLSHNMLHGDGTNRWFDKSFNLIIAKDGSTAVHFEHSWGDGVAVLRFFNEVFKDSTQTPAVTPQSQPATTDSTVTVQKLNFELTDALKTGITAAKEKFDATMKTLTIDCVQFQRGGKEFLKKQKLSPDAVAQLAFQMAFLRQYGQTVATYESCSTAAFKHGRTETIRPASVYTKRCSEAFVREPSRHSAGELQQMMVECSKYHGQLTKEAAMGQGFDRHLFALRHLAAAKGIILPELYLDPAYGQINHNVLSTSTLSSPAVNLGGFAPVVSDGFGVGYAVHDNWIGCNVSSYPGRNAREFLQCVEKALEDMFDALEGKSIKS

[4] = molecular target: T2, Carnitine O-palmitoyltransferase 2, mitochondrial (Rattus norvegicus, UniProt P18886); assay: as §1
T2 sequence (P18886 whole entry): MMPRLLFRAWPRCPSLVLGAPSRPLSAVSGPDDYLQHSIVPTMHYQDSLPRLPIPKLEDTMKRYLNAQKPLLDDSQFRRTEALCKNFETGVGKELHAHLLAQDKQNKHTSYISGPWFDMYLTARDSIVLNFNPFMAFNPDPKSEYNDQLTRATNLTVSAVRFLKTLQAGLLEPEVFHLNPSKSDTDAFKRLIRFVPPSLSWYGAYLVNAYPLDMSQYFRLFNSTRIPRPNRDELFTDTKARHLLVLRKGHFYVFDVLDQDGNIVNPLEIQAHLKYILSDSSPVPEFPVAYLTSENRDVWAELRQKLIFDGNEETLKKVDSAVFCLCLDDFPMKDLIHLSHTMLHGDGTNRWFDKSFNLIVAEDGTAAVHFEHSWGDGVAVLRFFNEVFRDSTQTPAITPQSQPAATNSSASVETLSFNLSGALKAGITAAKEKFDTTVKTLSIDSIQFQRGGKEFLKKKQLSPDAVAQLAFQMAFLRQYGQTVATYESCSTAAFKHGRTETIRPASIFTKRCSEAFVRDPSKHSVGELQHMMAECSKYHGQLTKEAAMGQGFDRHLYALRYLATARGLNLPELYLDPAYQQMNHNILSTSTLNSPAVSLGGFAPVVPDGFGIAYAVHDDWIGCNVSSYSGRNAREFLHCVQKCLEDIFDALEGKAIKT

[5] = molecular target: T3, Carnitine O-palmitoyltransferase 1, muscle isoform (Homo sapiens, UniProt Q92523); assay: SUPPLEMENTARY: Inhibition of Carnitine palmitoyltransferase 1, muscle isoform; parameters: species or system Muscle tissue
T3 sequence (Q92523 whole entry): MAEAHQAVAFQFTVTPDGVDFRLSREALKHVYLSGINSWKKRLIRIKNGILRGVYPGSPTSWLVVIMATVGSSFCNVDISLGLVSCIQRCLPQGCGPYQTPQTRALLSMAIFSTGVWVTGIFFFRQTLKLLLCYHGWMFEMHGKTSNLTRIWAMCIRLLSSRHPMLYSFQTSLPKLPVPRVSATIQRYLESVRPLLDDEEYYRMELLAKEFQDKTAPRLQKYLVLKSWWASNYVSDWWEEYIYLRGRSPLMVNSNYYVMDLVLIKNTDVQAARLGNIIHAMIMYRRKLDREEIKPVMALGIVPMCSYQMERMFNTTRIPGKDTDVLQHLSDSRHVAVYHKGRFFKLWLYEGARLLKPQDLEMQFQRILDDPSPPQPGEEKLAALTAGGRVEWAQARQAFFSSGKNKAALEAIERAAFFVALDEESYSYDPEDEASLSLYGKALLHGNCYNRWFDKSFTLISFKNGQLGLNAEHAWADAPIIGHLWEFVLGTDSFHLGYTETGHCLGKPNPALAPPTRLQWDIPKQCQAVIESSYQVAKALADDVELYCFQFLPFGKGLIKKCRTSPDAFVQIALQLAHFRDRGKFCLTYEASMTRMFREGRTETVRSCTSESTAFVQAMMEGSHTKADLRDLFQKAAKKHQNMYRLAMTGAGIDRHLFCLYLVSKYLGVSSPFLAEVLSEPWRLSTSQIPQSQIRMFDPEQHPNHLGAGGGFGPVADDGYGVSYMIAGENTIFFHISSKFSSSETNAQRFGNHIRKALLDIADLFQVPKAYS

[6] = molecular target: T4, Carnitine O-palmitoyltransferase 1, liver isoform (Rattus norvegicus, UniProt P32198); assay: (§2) SUPPLEMENTARY: Inhibition of Carnitine palmitoyltransferase 1, liver isoform
T4 sequence (P32198 whole entry): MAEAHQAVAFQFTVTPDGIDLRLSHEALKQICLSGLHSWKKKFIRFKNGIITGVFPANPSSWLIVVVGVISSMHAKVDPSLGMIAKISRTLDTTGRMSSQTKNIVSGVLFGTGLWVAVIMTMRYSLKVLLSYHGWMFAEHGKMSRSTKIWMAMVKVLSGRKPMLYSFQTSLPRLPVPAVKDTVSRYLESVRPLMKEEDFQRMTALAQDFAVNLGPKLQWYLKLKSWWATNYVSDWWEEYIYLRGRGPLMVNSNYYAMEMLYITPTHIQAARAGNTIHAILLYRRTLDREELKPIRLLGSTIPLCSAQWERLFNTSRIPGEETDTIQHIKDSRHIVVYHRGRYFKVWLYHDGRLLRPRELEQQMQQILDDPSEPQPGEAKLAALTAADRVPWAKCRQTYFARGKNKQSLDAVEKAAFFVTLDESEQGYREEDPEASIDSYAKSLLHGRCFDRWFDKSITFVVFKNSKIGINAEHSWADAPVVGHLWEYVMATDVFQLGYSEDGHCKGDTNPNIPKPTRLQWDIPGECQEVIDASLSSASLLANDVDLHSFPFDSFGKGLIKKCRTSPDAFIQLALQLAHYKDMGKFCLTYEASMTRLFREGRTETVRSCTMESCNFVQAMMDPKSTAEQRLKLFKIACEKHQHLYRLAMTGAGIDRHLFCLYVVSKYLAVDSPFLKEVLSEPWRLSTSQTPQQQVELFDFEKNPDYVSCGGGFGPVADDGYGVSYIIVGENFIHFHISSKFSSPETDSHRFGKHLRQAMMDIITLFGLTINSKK

[7] = molecular target: T5, Carnitine O-palmitoyltransferase 1, liver isoform (Homo sapiens, UniProt P50416); assay: as §2
T5 sequence (P50416 whole entry): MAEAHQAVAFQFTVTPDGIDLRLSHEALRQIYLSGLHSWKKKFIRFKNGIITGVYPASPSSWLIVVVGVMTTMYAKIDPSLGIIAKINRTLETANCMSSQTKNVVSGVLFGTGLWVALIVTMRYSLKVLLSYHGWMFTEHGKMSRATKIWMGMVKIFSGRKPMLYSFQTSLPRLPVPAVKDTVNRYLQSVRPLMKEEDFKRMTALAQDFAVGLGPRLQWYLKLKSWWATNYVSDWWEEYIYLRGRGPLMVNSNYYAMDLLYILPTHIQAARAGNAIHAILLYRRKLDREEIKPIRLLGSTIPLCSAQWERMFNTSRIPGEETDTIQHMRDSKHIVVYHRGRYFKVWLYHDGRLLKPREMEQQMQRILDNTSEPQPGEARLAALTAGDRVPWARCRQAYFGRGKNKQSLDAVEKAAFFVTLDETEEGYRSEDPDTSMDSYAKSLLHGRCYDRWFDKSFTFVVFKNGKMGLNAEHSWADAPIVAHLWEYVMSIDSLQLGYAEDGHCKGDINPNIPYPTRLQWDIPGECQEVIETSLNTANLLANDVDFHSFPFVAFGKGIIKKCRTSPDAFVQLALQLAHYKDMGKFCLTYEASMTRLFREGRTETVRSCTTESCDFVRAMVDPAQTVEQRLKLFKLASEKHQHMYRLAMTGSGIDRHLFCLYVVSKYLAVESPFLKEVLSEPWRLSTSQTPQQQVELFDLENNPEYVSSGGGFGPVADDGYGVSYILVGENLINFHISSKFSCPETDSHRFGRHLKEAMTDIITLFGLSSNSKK

COc1ccc(Cl)cc1S(=O)(=O)c1c[nH]c2ccc(C(=O)Nc3nc(CC(=O)O)cs3)cc12
logD [1]: -0.02
solubility kinetic [2]: 66 µg/mL (≈ 130 µM)
pIC50 [3]: < 4.00
pIC50 [4]: < 4.00
pIC50 [5]: 6.69
pIC50 [6]: 7.72
pIC50 [7]: 7.41

COc1ccc(Cl)cc1S(=O)(=O)c1cn(CS(C)(=O)=O)c2ccc(C(=O)Nc3ccccc3)cc12
logD [1]: > 3
solubility kinetic [2]: < 1 µg/mL
pIC50 [3]: < 4.00
pIC50 [4]: < 4.00
pIC50 [5]: < 4.00
pIC50 [6]: 7.21
pIC50 [7]: 6.95

COc1ccc(Cl)cc1S(=O)(=O)Nc1cccc(C(=O)Nc2ccc(-c3nnn[nH]3)cc2)c1
logD [1]: 0.35
solubility kinetic [2]: 25 µg/mL (≈ 51.6 µM)
pIC50 [3]: < 4.00
pIC50 [4]: < 4.00
pIC50 [5]: 6.17
pIC50 [6]: 7.84
pIC50 [7]: 7.73

O=C(Nc1ccc(C(=O)O)c(F)c1)c1ccc2c(c1)N(S(=O)(=O)c1ccc(Cl)c(Cl)c1)CC2
logD [1]: 2.84
solubility kinetic [2]: 11 µg/mL (≈ 21.6 µM)
pIC50 [3]: 4.94
pIC50 [4]: 4.65
pIC50 [5]: 5.39
pIC50 [6]: 7.16
pIC50 [7]: 6.99

COc1ccc(Cl)cc1S(=O)(=O)c1c[nH]c2ccc(C(=O)Nc3ccc(CC(=O)O)cc3)cc12
logD [1]: 0.17
solubility kinetic [2]: 41 µg/mL (≈ 82.2 µM)
pIC50 [3]: < 4.00
pIC50 [4]: < 4.00
pIC50 [5]: 6.63
pIC50 [6]: 7.63
pIC50 [7]: 7.66

COc1ccc(Cl)cc1S(=O)(=O)N1CC[S+]([O-])c2ccc(C(=O)Nc3ccc(CC(=O)O)cc3)cc21 (stereo not drawn)
logD [1]: -0.86
solubility kinetic [2]: 456 µg/mL (≈ 831 µM)
pIC50 [3]: < 4.00
pIC50 [4]: < 4.00
pIC50 [5]: 6.59
pIC50 [6]: 6.65
pIC50 [7]: 6.66

COc1ccc(Cl)cc1S(=O)(=O)c1nn(C)c2ccc(C(=O)Nc3ccccc3)cc12
logD [1]: > 3
solubility kinetic [2]: < 1 µg/mL
pIC50 [3]: < 4.00
pIC50 [4]: < 4.00
pIC50 [5]: < 4.00
pIC50 [6]: 7.53
pIC50 [7]: 7.07

COc1ccc(Cl)cc1S(=O)(=O)c1cn(CC(=O)O)c2ccc(C(=O)Nc3ccccc3)cc12
logD [1]: -0.23
solubility kinetic [2]: > 557 µg/mL
pIC50 [3]: < 4.00
pIC50 [4]: < 4.00
pIC50 [5]: 4.95
pIC50 [6]: 8.14
pIC50 [7]: 7.44

COc1ccc(Cl)cc1S(=O)(=O)c1cn(CSC)c2ccc(C(=O)Nc3ccccc3)cc12
logD [1]: > 3
solubility kinetic [2]: < 1 µg/mL
pIC50 [3]: < 4.00
pIC50 [4]: < 4.00
pIC50 [5]: < 4.00
pIC50 [6]: 7.60
pIC50 [7]: 6.73

COc1ccc(Cl)cc1S(=O)(=O)c1nn(CC(=O)O)c2ccc(C(=O)Nc3ccccc3)cc12
logD [1]: 0.31
solubility kinetic [2]: 374 µg/mL (≈ 748 µM)
pIC50 [3]: < 4.00
pIC50 [4]: < 4.00
pIC50 [5]: 4.41
pIC50 [6]: 7.61
pIC50 [7]: 7.42

O=C(COc1ccccc1)N1CCCC[C@@H]1c1csc(-c2n[nH]c3ccccc23)n1
logD [1]: > 3
solubility kinetic [2]: < 1 µg/mL
pIC50 [3]: 5.21
pIC50 [4]: 4.25
pIC50 [5]: 4.11
pIC50 [6]: 6.89

COc1ccc(Cl)cc1S(=O)(=O)c1c[nH]c2ccc(C(=O)Nc3ccc(C(=O)O)cc3)cc12
logD [1]: 0.84
solubility kinetic [2]: 23 µg/mL (≈ 47.4 µM)
pIC50 [3]: 5.71
pIC50 [4]: 5.29
pIC50 [5]: 6.28
pIC50 [6]: 7.69
pIC50 [7]: 7.76
